One may read the half-life as the time needed for the level to fall by half in the phase considered. A low value points to rapid decline. In general, IC50 refers to the midpoint of a concentration-inhibition curve.

The values below come from patent US20090286738A1, “Gene Regulation” (ST. GEORGE'S ENTERPRISES LIMITED, priority 2005, published 2009).

Entries after “also recorded” stand apart in the source; their conditions may differ.

Data set [1] deals with malignant cell lines (B16 mouse melanoma, LNCAP human prostate cancer, K562). As to the kind of experiment: Activity of peptides on different malignant cell lines, living and dead cells after 3 hours (FIGS. 6 to 8). Type of data set: cell-based. To be noted: for effect on living/dead cells, cell proliferation: 60 μM or 6 μM, 3 hour exposures, melanoma, prostate cancer and leukaemia cells. The protocol: (§1) The peptides as indicated were applied to the cells at a concentration of 60 μM (FIG. 6A) or 6 μM (FIG. 6B). In both experiments the HXArg9, CX1Arg9 and CX2Arg9 peptides used were the (2D) variant peptides in which the N- and C-terminal amino acids are in the D conformation and all remaining amino acids are in the L conformation. The number of living and dead cells were assessed after 3 hours. Black bars=% or number of cells dead. White bars=% or number of cells alive.
The peptides as indicated were applied to the cells at a concentration of 60 μM (FIG. 7A) or 6 μM (FIG. 7B). In both experiments the HXArg9, CX1Arg9 and CX2Arg9 peptides used were the (2D) variant peptides in which the N- and C-terminal amino acids are in the D conformation and all remaining amino acids are in the L conformation. The number of living and dead cells were assessed after 3 hours. Black bars=% or number of cells dead. White bars=% or number of cells alive.
as §1, with “μM. HXArg9(2D) is” for “μM (FIG. 6A) or 6 μM (FIG. 6B). In both experiments”, “variant form of HXArg9 in which the N-terminal and C-terminal amino acids are in the D conformation and the remaining amino acids are in the L conformation. HXArg9 consists of only L-conformation amino acids. The” for “HXArg9,”, “bars=%” for “bars=% or number of”
(§2) Cell lines were seeded at 4×10^4 cells/ml in liquid culture system made of RPMI-1640 medium (Life Technologies, UK) supplemented with Foetal Calf Serum (10% Sigma Aldrich) and penicillin/streptomycin (1%, Sigma) and at least in duplicate. When required the test peptide was added to the medium. Cell lines were cultured for up to 7 days at 37° C., 5% CO2 in humidified atmosphere. Cultured cells were then assessed for cell viability/enumeration using trypan blue exclusion (Sigma Aldrich).
The activity of the peptides described above was tested on a number of different malignant cell lines using a similar assay to that described previously.

The subject of data set [2] is B16 murine melanoma cells. As to the kind of experiment: B16 cell growth over a 4 day period (FIGS. 2B, 3). Type of data set: cell-based. The following applies: 200 μg/ml for 4 hours, counted day 4. The protocol: In FIG. 2B the peptides as indicated were applied to the cells at a concentration of 200 μg/ml for 4 hours. The number of cells present was assessed on the day of treatment (white bars) and on day 4 (diagonal stripes).
A=untreated; B=CXP4; C=HXP4; D=HXP4(3D)2; E=HXP4(3D)3; F=HXP4(3D)4.
as §2

A short description of data set [3]: Stability of peptides in human plasma at 37° C., SDS-PAGE. The class given is in vitro ADME. The following applies: 1 mM peptide. The method, then: Peptides were incubated in human serum for the times shown and then visualised on a Coomassie brilliant blue stained gel. The arrow heads indicate the position of intact peptide. Standard=peptide only in this lane as a marker.
The stability of HXArg9(2D) and CX2Arg9(2D) was assessed by incubation each with human plasma at 37° C. and the amount of peptide remaining after different amounts of time was assessed by SDS-PAGE. Each peptide was added to freshly prepared human plasma to a final concentration of 1 mM in a total volume of 40 μl. Samples were incubated at 37° C. and reactions were stopped by adding 60 μl of water and 0.9 ml of protein gel loading buffer (BioRad, USA) containing 1% 2-mercaptoethanol, and heating to 95° C. for four minutes. 2 μl of each sample was run on a 22% acrylamide gel. […] This compared with a half life of approximately 40 minutes for the L isomer form HXArg9.

The subject of data set [4] is J82 (Human bladder cancer). Type of data set: cell-based. From the text:
(§3) FIG. 5(a): MTT assays to determine the IC50 of the control and hexapeptide-containing peptides.
(§4) These include prostate (Miller, G. J. et al. Cancer Res. 63, 5879-5888 (2003)), renal (Cillo, C. et al. Int. J. Cancer. 51, 892-897 (1992)), bladder (Cantile, M., et al. Oncogene 22, 6462-6468 (2003)), lung (Abe, M. et al. Oncol. Rep. 15, 797-802 (2006)) and ovarian (Cheng, W., et al. Nat. Med. 11, 531-537 (2005)) cancer. In order to determine whether HXArg9 could also block the growth of cells derived from these cancers, we obtained the IC50 using an MTT assay for representative cell lines of each (Table 1).

In data set [5] the test system is A549 (Human non-small cell lung carcinoma). Type of data set: cell-based.
Source text: as §3, §4

The test system of data set [6] is A498 (Human renal cancer). The class given is cell-based.
Source text: as §3, §4

For another data set, the system named is B16F10 (Mouse melanoma). Type of data set: cell-based.
Source text: as §3, §4

For data set [7], the system named is SK-OV3 (Human ovarian cancer). Type of data set: cell-based.
Source text: as §3, §4

Data set [8] has as its system LNCaP (Human prostate cancer). Type of data set: cell-based.
Source text: as §3, §4

Data set [9] concerns malignant cell lines (B16 mouse melanoma, LNCAP human prostate cancer, K562). To be noted: time scale in which HXP4 shows an effect; cited from earlier work.
The test system of the next data set is B16 cells. As to the kind of experiment: Apoptosis of B16 cells (microscopy, Hoechst, Annexin V FACS). Type of data set: cell-based, murine. The following applies: in combination with HXArg9(2D). The method, then: FIG. 5(b): Light micrographs of B16 cells treated with 60 μM HXArg9(2D) (HXR9) or CX2Arg9(2D) (CXR9) for two hours. Scale bar=40 μm.
FIG. 5(c) Transmission electron micrographs of B16 cells treated with 60 μM HXR9 or CXR9 for two hours. Scale bar=[…].
FIG. 5(d) FACS sorting of B16 cells with Annexin. Cells were treated as indicated above each plot. The lower left hand quadrant represents normal, viable cells. The bottom and top right hand quadrants represent cells in early and late apoptosis, respectively, and the top left hand quadrant represents cells in necrosis.
Apoptotic morphology was determined using scanning electron microscopy and fluorescence microscopy. Changes in nuclear morphology were assessed by fixing B-16 cytospins with ice-cold methanol at room temperature for five minutes. The fixed cells were stained with Hoechst 33258 (2 μg/ml) (Sigma) and mounted using VECTASHIELD® mounting medium (Vector) and analyzed by fluorescence microscopy (Nikon Eclipse TE 2000-S).
An additional sign of apoptosis is the appearance of phosphatidylserine in the cell membrane (Koopman, G. et al. Blood 84, 1415-1420 (1994)). This can be detected by fluorescencently labeled Annexin V protein and cell sorting using FACS.
This is a specific inhibitor of the caspase proteases, which are key components of the apotopic pathway (Zhu, H., et al. FEBS Lett. 374, 303-308 (1995)).

Data set [10] concerns B16 murine melanoma cells. Description: Living and dead B16 cells after 3 hours (FIGS. 2A, 9). The class given is cell-based. The following applies: B16 cells, FIGS. 2 and 3. The protocol: In FIG. 2A the peptides as indicated were applied to the cells at a concentration of 60 μM. The number of living and dead cells were assessed after 3 hours. Black bars=number of cells dead. White bars=number of cells alive.
as §1
The HXArg9 peptide used was the (2D) variant peptide in which the N- and C-terminal amino acids are in the D conformation and all remaining amino acids are in the L conformation. HXArg9 was applied to the cells at a variety of concentrations (μM), and the number of dead and living cells was assessed after 3 hours. Black bars=% cells dead. White bars=% cells alive.
as §2

“MCAAGDDALRRRRRRRRR [CX2Arg9, more extensively changed version of the control peptide CX1Arg9, reference compound]”: the “effect on living/dead cells, cell proliferation” value (“effect on living/dead cells” for short) in [1] was “no effect on cell proliferation”.

As to WYPWMKKHHRQIKIWFQNRRMKWKK [HXP4], the “effect on living/dead cells” value in data set [1] is recorded as “no effect”. Also, in data set [1] (compared with 3 hour exposures for HXArg9), the “time required to achieve the same response” value is 4 days. In addition, in data set [2], the “cell growth over a 4 day period” value is “significantly reduced cell growth”.

Turning to “WCPWLDRHGRRRRRRRRR [CX1Arg9, control peptide based on HXArg9 with amino acid substitutions]”, in data set [1], the “effect on living/dead cells” value is listed as “some activity”.

Turning to `CSCC[C@H](NC(=O)[C@H](Cc1c[nH]c2ccccc12)NC(=O)[C@@H]1CCCN1C(=O)[C@H](Cc1ccc(O)cc1)NC(=O)[C@H](N)Cc1c[nH]c2ccccc12)C(=O)N[C@@H](CCCCN)C(=O)N[C@@H](CCCCN)C(=O)N[C@@H](Cc1c[nH]cn1)C(=O)N[C@@H](Cc1c[nH]cn1)C(=O)N[C@@H](CCCNC(=N)N)C(=O)N[C@@H](CCCNC(=N)N)C(=O)N[C@@H](CCCNC(=N)N)C(=O)N[C@@H](CCCNC(=N)N)C(=O)N[C@@H](CCCNC(=N)N)C(=O)N[C@@H](CCCNC(=N)N)C(=O)N[C@@H](CCCNC(=N)N)C(=O)N[C@@H](CCCNC(=N)N)C(=O)N[C@H](CCCNC(=N)N)C(=O)O` [HXArg9(2D), WYPWMKKHHRRRRRRRRR], the half-life at 1 mM in data set [3] was roughly 12 h. The IC50 was 22 µM in data set [4]; 19 µM in [5]; 24 µM in data set [6]; 20 µM in the data set on B16F10 (Mouse melanoma); 22 µM in data set [7]; 21 µM in [8].

In data set [3], `CSCC[C@@H](N)C(=O)N[C@@H](CS)C(=O)N[C@@H](C)C(=O)N[C@@H](C)C(=O)NCC(=O)N[C@@H](CC(=O)O)C(=O)N[C@@H](CC(=O)O)C(=O)N[C@@H](C)C(=O)N[C@@H](CC(C)C)C(=O)N[C@@H](CCCNC(=N)N)C(=O)N[C@@H](CCCNC(=N)N)C(=O)N[C@@H](CCCNC(=N)N)C(=O)N[C@@H](CCCNC(=N)N)C(=O)N[C@@H](CCCNC(=N)N)C(=O)N[C@@H](CCCNC(=N)N)C(=O)N[C@@H](CCCNC(=N)N)C(=O)N[C@@H](CCCNC(=N)N)C(=O)N[C@H](CCCNC(=N)N)C(=O)O` [CX2Arg9(2D), MCAAGDDALRRRRRRRRR, reference compound] gave a half-life at 1 mM of roughly 12 h. Besides, the IC50 in [4] turned out to be 290 µM; in data set [5] it was 240 µM; in data set [6], 280 µM; with B16F10 (Mouse melanoma) it was 200 µM; in data set [7], 270 µM; in data set [8], 220 µM.

For the molecule WCPWLDRHGRQIKIWFQNRRMKWKK [CXP4], the “effect in a similar assay, previously shown” value in [9] is reported as “ineffective”.

In the case of Z-VAD, the “cell death / apoptosis on co-treatment with HXArg9(2D)” value in the data set on B16 cells is “significant reduction in cell death; also recorded: significant reduction in the number of cells undergoing apoptosis”.

As to WYPWMKKHHRQIKIWFQNRRMKWKK [HXP4(3D)1], the “activity of D-isomer variants of HXP4” value in [10] is given as “slightly higher activity than the other 3D isomers”.
